The values below are quoted from earlier work in patent US10617673B2, “Cannabinoid receptor antagonists/inverse agonists useful for treating metabolic disorders, including obesity and diabetes” (Jenrin Discovery, LLC, priority 2012, dated 2020).

The conditions of this data set: type 2 diabetes patients not on other anti-diabetic medications, after six months, baseline value 7.9.

In the case of `Cc1c(C(=O)NN2CCCCC2)nn(-c2ccc(Cl)cc2Cl)c1-c1ccc(Cl)cc1` [rimonabant], the HbA1c levels lowered is 0.8%.
